Measured values published in PMC6508865, “Dynamics of thymol dietary supplementation in quail (Coturnix japonica): Linking bioavailability, effects on egg yolk total fatty acids and performance traits” (PLoS ONE, 2019).
Like-named read-outs stand apart in the source and are kept apart here.

Legend:
[1] = Thymol quantification in quail droppings (HS-SPME/GC-MS) during chronic dietary supplementation; type: in vivo, Coturnix japonica; settings: for concentration at 2 days / concentration at 9 days / concentration at 16 days / concentration at 26 days: female, Japanese quail (Coturnix japonica), droppings, oral, read-out: THY concentration in droppings
Source text: A total of 50 eighty-five days-old female quail of homogeneous body weights (251 ± 1 g; Mean ± SE) and in their egg-laying peak were selected from an initial group of 96 female individuals. All birds continued receiving a basal diet between 85 and 100 days of age and all variables (see below for details) were registered along this period (Pre-supplementation period, Fig 1). From 100 to 128 days of age (S period, Fig 1), females were randomly assigned to either a chronic dietary supplementation with one of 3 THY doses (THY2, THY4 and THY6; 10 females each) or to one of 2 control groups (basal diet, BASAL, and basal diet with vehicle solution, VEHICLE; 10 females each). Once finished the S period, half of the quail were slaughtered for histological analysis (n = 25; Slaughter 1, Fig 1) and the other half were subjected to a pS period of 21 days, during which all females received the BASAL diet (pS, Fig 1). After this period, the remaining 25 animals were also slaughtered for histological analysis (Slaughter 2, Fig 1). In this way, we assessed whether THY induced changes in variables indicative of tissue damage and if so, whether the potential damages could reverse after 3 weeks of supplement withdrawal.
To assess changes in egg yolk total FA composition, egg physical characteristics, laying rate, body weight, feed intake and general welfare, during the S and pS periods, five sampling points were defined (Sample points, Fig 1): one initial sample point (at 0 days of S); three sample points during the S period (at 7, 14 and 28 days of S); and one sample point at the end of the pS period (21 days of pS). It should be noted that for determinations of THY concentration, eggs and quail droppings were collected offset from the other variables measured by 2 days, thus were collected on days 2, 9, 16, and 26 days of S, and 17 days of pS, respectively.
Thymol was commercially obtained from Sigma-Aldrich (SAFC®, ⩾99%; FCC, Saint Louis, MO, USA). Supplemented quail were provided 2, 4 or 6.25 g of THY per kg of feed. For this end, THY was prepared in a 2.4, 4.8 and 7.5% w/v ethanolic solution and uniformly sprayed on fresh feed. The feed was prepared and administrated daily, to minimize THY volatilization from feed before its consumption by females. The doses were selected considering two factors. The first, the concentration range for which the transfer of THY to the chicken and/or quail egg has been established. Second, the concentrations of THY supplementation that have shown biological effects. […] In this context, THY4 is and intermediate dose between the last two. Nutrient and FA compositions of the diets supplied were identical between each other and are reported in S1, S2 and S3 Tables, and are in accordance with the National Research Council recommendation.
Egg yolks and droppings of each female were obtained at each sample point (Sample points, Fig 1) and THY concentration was immediately measured by head space-solid phase microextraction followed by gas chromatography-mass spectrometry (HS-SPME/GC-MS) according to Fernandez et al.. SPME was performed with a manual holder with 100 um polydimethylsiloxane (PDMS) fiber. An aliquot of egg yolk (3 g), droppings (5 g) or feed (5 g) was put in a sealed 20 mL glass vial, spiked at the corresponding level with the standard m-cresol (Sigma-Aldrich; ≥ 99% (GC); Saint Louis, MO, USA) stock solution, and vortexed for 5 min. The vials were placed in a water bath and the PDMS fiber was exposed to the headspace for 30 min at 60°C and 5 min at 40°C for egg yolk and droppings or feed, respectively. The fiber was then inserted directly into the GC injector for desorption at 250°C for 10 min in splitless mode. Chromatography analysis was carried out in a Perkin Elmer Clarus 600 equipped with a PSSI injector and a quadrupole MS detector (Perkin Elmer, USA). Turbo Mass 5.4.2 software was used to control and acquire data from GC–MS. […]

[2] = test system: female quail; design: method as in ref 41 = [41]; 41 Labaque MC , Kembro JM , Luna A , Marin RH . Effects of thymol feed supplementation on female Japanese quail ( Coturnix coturnix ) behavioral fear response . Anim Feed Sci Technol . 2013; 183 ( 1–); settings: THY2, 2 g of THY per kg of feed; cited from earlier work
[3] = test system: quail; design: method as in PMID 28474397; settings: THY6, 6.25 g of THY per kg of feed; cited from earlier work
[4] = test system: female Japanese quail (Coturnix japonica); test: General welfare quality assessment; type: in vivo; settings: 2, 4, 6.25 g of THY/kg feed
Procedure: A welfare assessment based on observations of physical characteristics was made. Female skin lesions and plumage status were evaluated following a procedure proposed by Pellegrini et al. that is an adapted version of the protocol developed by the Welfare Quality consortium. Briefly, skin lesions, which include wounds that have not healed in the legs, rear end, chest, cloacae and wings were determined using a score scale from 0 to 2, where "0" represents no lesions or scratches, "1" represents at least one lesion < 0.5 cm diameter or less than 3 pecks (punctiform damage ~ 0.1 cm of diameter) or scratches, and "2" reflects one lesion ≥ 0.5 cm of diameter or more than 3 pecks or scratches. Plumage damage was also determined using a score scale from 0 to 2 as follows: "0" represents individuals with no plumage damage or slight wear (only single feathers lacking), "1" represent individuals with one or more body parts that have moderate wear (i.e. damaged feathers worn or deformed) or one or more featherless areas < 1.5 cm in diameter at the larger extent and "2" corresponded to individuals that have at least one featherless area > 1.5 cm in diameter at the largest extent. […]

[5] = THY2, 2 g of thymol/kg of feed, pS, 17 days of supplement withdrawal
[6] = THY4, 4 g of thymol/kg of feed, pS, 17 days of supplement withdrawal
[7] = THY6, 6.25 g of thymol/kg of feed, pS, 17 days of supplement withdrawal

## Cc1ccc(C(C)C)c(O)c1 [THY, 2 isopropyl-5-methylphenol]
[1]; THY2, 2 g of thymol/kg of feed, 2 days of S
  Percentage of THY transferred to droppings in relation to the amount ingested: 0.53%
[1]; THY2, 2 g of thymol/kg of feed, 9 days of S
  Percentage of THY transferred to droppings in relation to the amount ingested: 2.33%
[1]; THY2, 2 g of thymol/kg of feed, 16 days of S
  Percentage of THY transferred to droppings in relation to the amount ingested: 2.41%
[1]; THY2, 2 g of thymol/kg of feed, 26 days of S
  Percentage of THY transferred to droppings in relation to the amount ingested: 3.47%
[1]; [5]
  Percentage of THY transferred to droppings in relation to the amount ingested: 0.04%
  THY concentration in droppings: 4.37 ng/g
[1]; THY4, 4 g of thymol/kg of feed, 2 days of S
  Percentage of THY transferred to droppings in relation to the amount ingested: 0.25%
[1]; THY4, 4 g of thymol/kg of feed, 9 days of S
  Percentage of THY transferred to droppings in relation to the amount ingested: 1.78%
[1]; THY4, 4 g of thymol/kg of feed, 16 days of S
  Percentage of THY transferred to droppings in relation to the amount ingested: 1.91%
[1]; THY4, 4 g of thymol/kg of feed, 26 days of S
  Percentage of THY transferred to droppings in relation to the amount ingested: 2.11%
[1]; [6]
  Percentage of THY transferred to droppings in relation to the amount ingested: 0.12%
  THY concentration in droppings: 30.58 ng/g
[1]; THY6, 6.25 g of thymol/kg of feed, 2 days of S
  Percentage of THY transferred to droppings in relation to the amount ingested: 0.21%
[1]; THY6, 6.25 g of thymol/kg of feed, 9 days of S
  Percentage of THY transferred to droppings in relation to the amount ingested: 1.33%
[1]; THY6, 6.25 g of thymol/kg of feed, 16 days of S
  Percentage of THY transferred to droppings in relation to the amount ingested: 1.74%
[1]; THY6, 6.25 g of thymol/kg of feed, 26 days of S
  Percentage of THY transferred to droppings in relation to the amount ingested: 1.57%
[1]; [7]
  Percentage of THY transferred to droppings in relation to the amount ingested: 0.09%
  THY concentration in droppings: 37.95 ng/g
[1]; during the plateau, across THY2, THY4, THY6
  THY transferred to the droppings, of the amount THY ingested: 1.57–3.47%
[1]; 2 g/kg of feed, THY2, 2 g of thymol/kg of feed, 2 days of S
  concentration at 2 days: 51.8 ng/g
[1]; 2 g/kg of feed, THY2, 2 g of thymol/kg of feed, 9 days of S
  concentration at 9 days: 229 ng/g
[1]; 2 g/kg of feed, THY2, 2 g of thymol/kg of feed, 16 days of S
  concentration at 16 days: 237 ng/g
[1]; 2 g/kg of feed, THY2, 2 g of thymol/kg of feed, 26 days of S
  concentration at 26 days: 342 ng/g
[1]; 4 g/kg of feed, THY4, 4 g of thymol/kg of feed, 2 days of S
  concentration at 2 days: 63.5 ng/g
[1]; 4 g/kg of feed, THY4, 4 g of thymol/kg of feed, 9 days of S
  concentration at 9 days: 459 ng/g
[1]; 4 g/kg of feed, THY4, 4 g of thymol/kg of feed, 16 days of S
  concentration at 16 days: 491 ng/g
[1]; 4 g/kg of feed, THY4, 4 g of thymol/kg of feed, 26 days of S
  concentration at 26 days: 542 ng/g
[1]; 6.25 g/kg of feed, THY6, 6.25 g of thymol/kg of feed, 2 days of S
  concentration at 2 days: 85 ng/g
[1]; 6.25 g/kg of feed, THY6, 6.25 g of thymol/kg of feed, 9 days of S
  concentration at 9 days: 550 ng/g
[1]; 6.25 g/kg of feed, THY6, 6.25 g of thymol/kg of feed, 16 days of S
  concentration at 16 days: 721 ng/g
[1]; 6.25 g/kg of feed, THY6, 6.25 g of thymol/kg of feed, 26 days of S
  concentration at 26 days: 650 ng/g
[2]
  bird's locomotor activity: without affecting
  female quail fear responses when exposed to stressful situations: reduces female quail fear responses
[3]
  PUFA and SFA in yolk total fatty acids and triglycerides of the quail fertile egg: enhances PUFA deposition to the detriment of SFA
[4]
  effect on general well-being: did not affect
